The values below come from paper PMC9085437, “Silica-coated magnetic iron oxide functionalized with hydrophobic polymeric ionic liquid: a promising nanoscale sorbent for simultaneous extraction of antidiabetic drugs from human plasma prior to their quantitation by HPLC” (RSC Advances, 2018).

This data set is described as follows: Pharmacokinetic assessment in healthy fed male volunteers after oral tablet administration, plasma quantified by MSPE-HPLC-UV. As to conditions: human, in vivo, 25 mg. The procedure:
The chromatographic analysis was conducted using a Waters alliance e2695, (Massachusetts, USA) system which was equipped with a Waters 2487 dual wavelength detector and C18 TMS endcapping/reversed phase column (Luna 5 μm C18 100 A HPLC column 250 × 4.6 mm id, Phenomenex Co, Torrance, CA) at 40 °C. The mobile phase which being used in an isocratic mode was composed of potassium dihydrogen phosphate and sodium dodecyl sulfate (0.01 M, pH 6): acetonitrile (55 : 45, v/v) and passed through column with flow rate of 1 mL min^−1 (the mobile phase was filtered and degassed daily prior to use in HPLC). […] The column effluent was monitored at UV wavelength of 215 nm and the injection volume was 20.0 μL. The mobile phase was filtered by passing it through a 0.2 μm membrane filter (Millipore, Bedford, MA, USA).
Every frozen human plasma were firstly thawed at room temperature and placed into a sample glass tube. Preparation of plasma before MSPE method was based on protein precipitation with aid of acetonitrile. In this regard, the plasma (1.9 mL) was fortified with 100.0 μL of required concentrations of analytes followed by mixing with 2.0 mL ACN. The obtained solution was vortexed for 1 min and centrifuged for 5 min at 3500 rpm. Then, ACN content of the clear supernatant was evaporated under nitrogen stream and the remaining sample was transferred into 4.0 mL buffer solution at pH 4.0. Sample volume after evaporation under nitrogen stream was about 2 mL and total sample volume after transferring to 4 mL buffer solution was about 6 mL. 5.0 mL of the deproteinized samples containing target drugs were subjected to the extraction procedure for subsequent analysis.
Initially, 5.0 mL of the deproteinized human plasma (initial volume of spiked plasma sample 2.0 mL) was placed into a glass tube and 10.0 mg of magnetic Fe3O4@SiO2@PIL was added to the sample. The mixture was sonicated for 4 min to totally disperse the magnetic sorbent through the matrix and complete the extraction of target drugs at room temperature. Analyte-loaded sorbent was collected from the sample solution by exposing the glass tube to a powerful neodymium–iron–boron (Nd–Fe–B) magnet (5 × 5 × 4 cm, 0.8 tesla), and the upper phase was poured out. Later, the adsorbed analytes were eluted by 1.0 mL of acetonitrile (0.5 mL every time and washed two times) to desorb the analytes. Elution process was completed during 2 min in the ultrasonic bath. The magnet was used again to separate the sorbent and then the total volume of eluted solution was collected and evaporated to dryness under stream of the nitrogen. The dry residue was re-dissolved in 100.0 μL of mobile phase and stirred for 1 min. Finally, 20.0 μL of this solution was injected into the HPLC-UV system for analysis.
Eight healthy fed male volunteers within the age range of 28–42 years old were enrolled in these studies. […] The plasma samples were immediately transferred into a clean polypropylene tube and stored at −18 °C until being used. All assessments were approved by “The Committee For Research Ethics” of Department of Pharmacy and Pharmaceutical Sciences Research Center, Tehran University of Medical Sciences. In the next experiments, a single oral dose administration of Jardiance tablet (25 mg EMPA) was performed to four volunteers and the blood samples were collected and treated as the previous experiments. Each real sample was extracted at optimal conditions by the proposed procedure and the mean plasma concentration–time curve was obtained.

`OC[C@H]1O[C@@H](c2ccc(Cl)c(Cc3ccc(O[C@H]4CCOC4)cc3)c2)[C@H](O)[C@@H](O)[C@@H]1O` [EMPA, empagliflozin]: the AUC(0-inf) worked out at 1430 ± 151 ng·h/mL, the AUC(0-t) was determined as 1400 ± 122 ng·h/mL, the Cmax is 216 ± 44.1 ng/mL and the Tmax was found to be 2.9 ± 0.3 h. This compound showed a half-life of 7.2 ± 1.1 h.
